Test results as given in patent publication US20260159525A1, “TRICYCLIC HETEROCYCLES” (Merck Patent GmbH, priority 2021, published 2026).

Each compound was assayed on YAP-TEAD interaction (assay: SK-HEP-1 reporter assay (8x TEAD responsive elements driving NanoLuc luciferase)). Conditions: Homo sapiens, SK-HEP1, SK-HEP-1 cells, 24 hour incubation, group symbols.
Format: cell-based
Procedure: To identify inhibitors of YAP-TEAD interaction, 8× TEAD responsive elements driving the NanoLuc® luciferase gene were stably integrated into SK-HEP-1 cells (ECACC #: 91091816).
For the assay, cells were treated in duplicates with the test compounds in a 10-point dose, with the top concentration starting at 30 μM (final concentration in assay). After a 24 hour incubation at 37° C., 95% rH, and 5% CO2, a luciferase substrate/lysis reagent mix (NanoGlo™, Promega) was added to the cells, allowing the quantification of cellular luciferase activity.
Cell Media: The cells were cultured in the following media: MEM, +10% FBS, +1× GlutaMAX, +1 mM Sodium-Pyruvate, +100 μM Non-essential amino acids, +0.1 mg/ml Hygromycin. The media used for the assay was: MEM (w/o Phenol Red), +10% FBS, +1× GlutaMAX, +1 mM Sodium-Pyruvate, +100 μM Non-essential amino acids, +0.5% Pen/Strep
Reagents: The reagents used are listed below:
Cell culture: The cells were examined using an inverted microscope to check for health and cell density. To dissociate adherent cells, the monolayer of cells was washed once with pre-warmed PBS. After removing the PBS, 3 ml pre-warmed Accutase® was added to a F75 flask, dispersed evenly and the flask was allowed to sit in incubator for ˜4-5 minutes.
When a single cell suspension was obtained, 7 ml of prewarmed growth media was added and resuspended with the cells. The cell suspension was transferred to a sterile 15 ml conical centrifuge tube, and spun for 5 min at 300×g, RT. The supernatant was discarded and the pellet was resuspended in 10 ml of pre-warmed growth media.
The total cell count was determined, and 20 μl of the desired cell number was added to each well of a 384 well plate using a Multidrop Combi. The plates were then incubated for 24 hours at 37° C., 95% rH, and 5% CO2.
Compound treatment: 24 hours after seeding, the cells were treated with compounds.
A 1:333 dilution of compounds, diluted in DMSO, was made to get a final concentration of 0.3% DMSO per well. To transfer the compounds to the assay plate, 120 nl was shot from Labcyte low dead volume plates to the cell plates containing 20 μl media/well with the ECHO 555 liquid handling system. After treatment, the cells were fed with 20 μl fresh pre-warmed assay media using a Multidrop combi.
The assay plates were then incubated for another 24 h at 37° C., 95% rH, and 5% CO2.
Luciferase readout: 24 h after treatment, the plates were taken out of the incubator and were allowed to equilibrate to RT. 30 μl of NanoGlo® reagent was added to the plates in the dark. Plates were shaken for 20 min on a Teleshake (˜1500 rpm) in the dark. The luminescence was then measured using an EnVision microplate reader. The IC50 values were generated using Genedata Screener®.
With `COCC[C@H](CO)NC(=O)c1cc2c3cn(C)nc3n(-c3ccc(C(F)(F)F)cc3)c2s1` (single isomer, unassigned) [Compound 58] the IC50 was > 10 µM. Work on `Cn1nc2c3sc(C(=O)NC4CC4)cc3n(-c3ccc(C(F)(F)F)cc3)c2n1` [Compound 6, N-cyclopropyl-4-methyl-7-[4-(trifluoromethyl)phenyl]-11-thia-3,4,5,7-tetraazatricyclo[6.3.0.0^2,6]undeca-1(8),2,5,9-tetraene-10-carboxamide] yielded an IC50 of 0.1 to 10 µM. With `Cn1nc2c3sc(C(=O)NCCO)cc3n(-c3ccc(C(F)(F)F)cc3)c2n1` [Compound 7, N-(2-hydroxyethyl)-4-methyl-7-[4-(trifluoromethyl)phenyl]-11-thia-3,4,5,7-tetraazatricyclo[6.3.0.0^2,6]undeca-1(8),2,5,9-tetraene-10-carboxamide] the IC50 was > 10 µM. With `Cn1nc2c3sc(C(=O)N4CCC(O)C4)cc3n(-c3ccc(C(F)(F)F)cc3)c2n1` (centres unmarked) [Compound 9, 1-{4-methyl-7-[4-(trifluoromethyl)phenyl]-11-thia-3,4,5,7-tetraazatricyclo[6.3.0.0^2,6]undeca-1(8),2,5,9-tetraene-10-carbonyl}pyrrolidin-3-ol] the IC50 was 0.1 to 10 µM. For `Cn1cc2c3sc(C(=O)NCCO)cc3n(-c3ccc(C(F)(F)F)cc3)c2n1` [Compound 13, N-(2-hydroxyethyl)-10-methyl-7-[4-(trifluoromethyl)phenyl]-3-thia-7,9,10-triazatricyclo[6.3.0.0^2,6]undeca-1(11),2(6),4,8-tetraene-4-carboxamide], the IC50 was > 10 µM. With `Cn1cc2c3sc(C(=O)N[C@@H](CO)c4ccccn4)cc3n(-c3ccc(C(F)(F)F)cc3)c2n1` [Compound 14, N-[(1R)-2-hydroxy-1-(pyridin-2-yl)ethyl]-10-methyl-7-[4-(trifluoromethyl)phenyl]-3-thia-7,9,10-triazatricyclo[6.3.0.0^2,6]undeca-1(11),2(6),4,8-tetraene-4-carboxamide] the IC50 was > 10 µM. In the case of `C[C@H](CO)NC(=O)c1cc2c(s1)c1cn(C)nc1n2-c1ccc(C(F)(F)F)cc1` [Compound 16, N-[(2R)-1-hydroxypropan-2-yl]-10-methyl-7-[4-(trifluoromethyl)phenyl]-3-thia-7,9,10-triazatricyclo[6.3.0.0^2,6]undeca-1(11),2(6),4,8-tetraene-4-carboxamide], the IC50 is reported as > 10 µM. `CNC(=O)c1cc2c(s1)c1nc(C)sc1n2-c1ccc(C(F)(F)F)cc1` [Compound 23, N,4-dimethyl-7-[4-(trifluoromethyl)phenyl]-5,11-dithia-3,7-diazatricyclo[6.3.0.0^2,6]undeca-1(8),2(6),3,9-tetraene-10-carboxamide] was tested, and the IC50 was > 10 µM.

Same assay, conditions: Homo sapiens, SK-HEP1, SK-HEP-1 cells, 24 hour incubation, number, or n.d. (x) = not detectable below threshold x
In the case of `Cn1cc2c3cc(C(=O)NC(CO)C4CCC4)sc3n(-c3ccc(C(F)(F)F)cc3)c2n1` (racemic) [Compound 57, N-(1-cyclobutyl-2-hydroxyethyl)-4-methyl-7-[4-(trifluoromethyl)phenyl]-9-thia-4,5,7-triazatricyclo[6.3.0.0^2,6]undeca-1(8),2,5,10-tetraene-10-carboxamide], the IC50 is reported as > 9.5 µM. With `Cn1cc2c3cc(C(=O)N[C@@H](CO)C4CCC4)sc3n(-c3ccc(C(F)(F)F)cc3)c2n1` (single isomer, unassigned) [Compound 55] the IC50 was > 9.5 µM. `Cn1cc2c3cc(C(=O)N[C@H](CO)C4CCC4)sc3n(-c3ccc(C(F)(F)F)cc3)c2n1` (single isomer, unassigned) [Compound 56] was tested, and the IC50 was > 9.5 µM. In the case of `Cn1cc2c3cc(C(=O)NC[C@@H](O)CO)sc3n(-c3ccc(C(F)(F)F)cc3)c2n1` (single isomer, unassigned) [Compound 128], the IC50 is reported as > 30 µM. `Cn1cc2c3cc(C(=O)NC[C@H](O)CO)sc3n(-c3ccc(C(F)(F)F)cc3)c2n1` (single isomer, unassigned) [Compound 129] was tested, and the IC50 was > 0.95 µM. In the case of `Cn1ccc([C@H](CO)NC(=O)c2cc3c4cn(C)nc4n(-c4ccc(C(F)(F)F)cc4)c3s2)n1` (single isomer, unassigned) [Compound 131], the IC50 is reported as > 0.095 µM.
